In US20210267197A1, “PEPTIDES SIMILAR TO THE NATURAL PEPTAIBOL TRICHOGIN GA IV WITH PHYTOSANITARY ACTIVITIES” (UNIVERSITA' DEGLI STUDI DI PADOVA, priority 2018, published 2021):

Tests used:
Penicillium expansum = test: In vitro inhibition of fungal spore germination, Penicillium expansum; assay type: cell-based; conditions: for Concentration effective in vitro in inhibiting the germination of fungal spores with respect to the untreated control for at least 3 days: Penicillium expansum; for Time for which spore germination of P. expansum is inhibited: peptide at 15 μM, limited by duration of the experiment
Botrytis cinerea [1] = test: B. cinerea spore viability / germination assay with resazurin; assay type: cell-based; conditions: for Concentration effective in vitro in inhibiting the germination of fungal spores with respect to the untreated control for at least 3 days: Botrytis cinerea; for Time for which spore germination of B. cinerea is inhibited: limited by duration of the experiment
Penicillium digitatum = test: In vitro inhibition of fungal spore germination, Penicillium digitatum; assay type: cell-based; conditions: for Concentration effective in vitro in inhibiting the germination of fungal spores with respect to the untreated control for at least 3 days: Penicillium digitatum; for Time for which spore germination of P. digitatum is inhibited: peptide at 15 μM, limited by duration of the experiment
B. cinerea = test: Rot symptoms from B. cinerea on vine leaves; assay type: in vivo, Botrytis cinerea; conditions: 50 μM
Botrytis cinerea [2] = test: Bean leaves inoculated with Botrytis cinerea; assay type: in vivo
Fusarium graminearum = assay type: cell-based
Penicillium italicum = test: In vitro inhibition of fungal spore germination, Penicillium italicum; assay type: cell-based; conditions: for Concentration effective in vitro in inhibiting the germination of fungal spores with respect to the untreated control for at least 3 days: Penicillium italicum; for Time for which spore germination of Penicillium italicum is inhibited: peptide at 15 μM, limited by duration of the experiment
Plasmopara viticola = conditions: for Prevention of development of the disease and production of sporangia of P. viticola: 50 μM aqueous solution, disks of vine leaves
Procedure: The histogram represents the average incidence (±standard error) of infections from P. viticola 12 days after inoculation obtained by performing at least 3 independent biological replicates. […] The incidence is calculated as a percentage ratio of the leaf disks showing the sporulation of the pathogen compared to the total of inoculated disks.
Glera vine leaves were inoculated with sporangia from the oomycete Plasmopara viticola, the causal agent of vine peronospora. The disks infected and then treated with peptides were incubated at 20/22° C. in conditions of high humidity (>92% RH) and in the dark (optimal conditions for the development of the disease) until the end of the experiment.

Pyricularia oryzae = assay type: cell-based

1-octanoyl-Aib-Gly-Leu-Aib-Gly-Lys(HCl)-Leu-Aib-Gly-Ile-Lol [Peptide K6-Lol]
Concentration effective in vitro in inhibiting the germination of fungal spores with respect to the untreated control for at least 3 days (Penicillium expansum): 15 µM | Concentration effective in vitro in inhibiting the germination of fungal spores with respect to the untreated control for at least 3 days (Botrytis cinerea [1]): 15 µM | Concentration effective in vitro in inhibiting the germination of fungal spores with respect to the untreated control for at least 3 days (Penicillium digitatum): 15 µM

1-octanoyl-Aib-Gly-Leu-Aib-Lys(HCl)-Lys(HCl)-Leu-Aib-Gly-Ile-Leu-NH2 [PEP4-rink]
Concentration effective in vitro in inhibiting the germination of fungal spores with respect to the untreated control for at least 3 days (Penicillium expansum): 15 µM | Concentration effective in vitro in inhibiting the germination of fungal spores with respect to the untreated control for at least 3 days (Botrytis cinerea [1]): 3 µM | Time for which spore germination of B. cinerea is inhibited (Botrytis cinerea [1]; peptide at 3 μM): at least 14 days | Time for which spore germination of B. cinerea is inhibited (Botrytis cinerea [1]; peptide at 15 μM): at least 21 days | Reduction in the incidence of rot symptoms from B. cinerea on vine leaves (B. cinerea): 70% | Concentration effective in vitro in inhibiting the germination of fungal spores with respect to the untreated control for at least 3 days (Penicillium digitatum): 15 µM | Reduction in the incidence of rot symptoms from B. cinerea on bean leaves (Botrytis cinerea [2]; 15 μM, 7 days after inoculation): 90% | Reduction in the incidence of B. cinerea (rot symptoms) on bean leaves (Botrytis cinerea [2]; 50 μM): 95% | Concentration effective in vitro in inhibiting the germination of fungal spores with respect to the untreated control for at least 3 days (Fusarium graminearum): 15 µM

1-octanoyl-Aib-Gly-Leu-Aib-Lys(HCl)-Lys(HCl)-Leu-Aib-Gly-Ile-Lol [PEP4]
Concentration effective in vitro in inhibiting the germination of fungal spores with respect to the untreated control for at least 3 days (Penicillium expansum): 15 µM | Concentration effective in vitro in inhibiting the germination of fungal spores with respect to the untreated control for at least 3 days (Penicillium italicum): 15 µM | Germination of conidia of B. cinerea (Botrytis cinerea [1]; 50 μM, conidia 5×10^5/ml in PDB): germination of the conidia is not observed | Concentration effective in vitro in inhibiting the germination of fungal spores with respect to the untreated control for at least 3 days (Botrytis cinerea [1]): 3 µM | Time for which spore germination of B. cinerea is inhibited (Botrytis cinerea [1]; peptide at 3 μM): at least 7 days | Incidence of the disease (leaf disks showing sporulation / total inoculated disks) (Plasmopara viticola; 30 μM, 12 days after inoculation): < 20% | Prevention of development of the disease and production of sporangia of P. viticola (Plasmopara viticola): almost completely prevents both the development of the disease and the production of sporangia | Time of protection against P. viticola (no disease / no sporangia) (Plasmopara viticola; 50 μM, limited by duration of the experiment): 15 days | Concentration effective in vitro in inhibiting the germination of fungal spores with respect to the untreated control for at least 3 days (Penicillium digitatum): 15 µM | Protection of bean leaves against infection by Botrytis cinerea (Botrytis cinerea [2]; 50 μM aqueous solution, for at least seven days (duration of the experiment)): protects the bean leaves against the infection caused by Botrytis cinerea | Concentration effective in vitro in inhibiting the germination of fungal spores with respect to the untreated control for at least 3 days (Pyricularia oryzae): 15 µM | Inhibition of spore germination of Pyricularia oryzae (Pyricularia oryzae; 15 μM): effectively inhibit the spore germination

1-octanoyl-Aib-Gly-Leu-Aib-Lys(HCl)-Lys(HCl)-Leu-Leu-NH2 [PEP4-corto1-rink]
Time for which spore germination of P. expansum is inhibited (Penicillium expansum): for 6 days (duration of the experiment) | Time for which spore germination of P. expansum is inhibited (Penicillium expansum; listed as Pep4-cortol-rink): 6 days | Concentration effective in vitro in inhibiting the germination of fungal spores with respect to the untreated control for at least 3 days (Penicillium italicum): 15 µM | Time for which spore germination of Penicillium italicum is inhibited (Penicillium italicum): for 6 days (duration of the experiment) | Time for which spore germination of Penicillium italicum is inhibited (Penicillium italicum; listed as Pep4-cortol-rink): 6 days | Time for which spore germination of P. digitatum is inhibited (Penicillium digitatum): for 6 days (duration of the experiment) | Time for which spore germination of P. digitatum is inhibited (Penicillium digitatum; listed as Pep4-cortol-rink): 6 days

1-octanoyl-Aib-Gly-Leu-Aib-Lys(HCl)-Lys(HCl)-Leu-Lol [PEP4-corto]
Concentration effective in vitro in inhibiting the germination of fungal spores with respect to the untreated control for at least 3 days (Botrytis cinerea [1]): 3 µM | Prevention of development of the disease and production of sporangia of P. viticola (Plasmopara viticola): almost completely prevents the development of the disease and the production of sporangia

1-octanoyl-Aib-Lys(HCl)-Leu-Aib-Lys(HCl)-Gly-Leu-Aib-Gly-Ile-Lol [Peptide K25]
Concentration effective in vitro in inhibiting the germination of fungal spores with respect to the untreated control for at least 3 days (Penicillium digitatum): 15 µM | Time for which spore germination of P. digitatum is inhibited (Penicillium digitatum): of Penicillium digitatum for more than 5 days

1-octanoyl-Aib-Lys(HCl)-Lys(HCl)-Leu-Aib-Gly-Ile-Leu-NH2 [PEP4-corto2-rink]
Time for which spore germination of P. expansum is inhibited (Penicillium expansum; listed as Pep4-corto2-rink): 15 days | Concentration effective in vitro in inhibiting the germination of fungal spores with respect to the untreated control for at least 3 days (Penicillium italicum): 15 µM | Time for which spore germination of Penicillium italicum is inhibited (Penicillium italicum; listed as Pep4-corto2-rink): 15 days | Time for which spore germination of B. cinerea is inhibited (Botrytis cinerea [1]; peptide at 15 μM, listed as Pep4-corto2-rink): 8 days | Time for which spore germination of P. digitatum is inhibited (Penicillium digitatum; listed as Pep4-corto2-rink): 15 days
